Assays:
Assay type in all cases: cell-based
SIRT3 = SIRT3 transcription, semi-quantitative RT-PCR in human epidermal progenitors; conditions: 72 h
Procedure: (§1) Human neonatal epidermal progenitors (Thermo Fisher Scientific, NY) were seeded in 6-well plates at a density of 2×10^5 cells/well. Each well received 2 ml of Epilife media containing 60 μM calcium chloride (Thermo Fisher Scientific, NY). Plates were incubated in a humidified chamber at 37 degrees Celsius and 5 percent CO2. Twenty-four hours later, cells were treated with various concentrations of oxyresveratrol or decapeptide-12 dissolved in PBS containing 5 percent DMSO. Control wells received vehicle only (5 percent DMSO and PBS). Final concentration of DMSO in each well was 0.05 percent.
(§2) After a 72 hour incubation period, cells were trypsinized and total RNA extracted, using RNeasy kit (Qiagen, Valencia, Calif.) according to the manufacturer's protocol.
(§3) RNA concentration was determined using nanodrop (Thermo fisher scientific, NY). Two μg of total RNA were used to synthesize cDNA using oligo dT primers and TaqMan reverse transcription reagents (Thermo fisher scientific, NY). The reaction was carried out in DNA Engine Peltier Thermal Cycler (Bio-Rad, Hercules, Calif.). The annealing temperature was 25 degrees Celsius for 10 minutes, followed by first strand synthesis at 48 degrees Celsius for 1 hour, and heat inactivation at 95 degrees Celsius for 5 minutes.
(§4) The SIRT1-7 primers (table 1) were designed using Primer3. The semi-quantitative PCR reactions were performed on a DNA Engine Peltier Thermo Cycler (Bio-Rad, Hercules, Calif.). PCR was carried under the following conditions: denaturation at 94 degrees Celsius for 2 minutes and primer extension at 54 degrees Celsius for 30 seconds in 34 cycles for SIRT 1-7 and the housekeeping gene 18S.
(§5) Samples were run and resolved on a 1.5 percent agarose gel containing 0.5 μg/ml of ethidium bromide and imaged using the FluorChem HD2 Imaging System (Protein simple, San Jose, Calif.). Densitometry analysis was carried out using the AlphaEase FC software (Protein simple, San Jose, Calif.). Intensity ratios were calculated as the intensity value for each gene divided by the intensity value of the internal control gene 18S.
(§6) The effect of the decapeptides P4, P4A, P4B, and P4C upon the transcription levels of sirtuins 1-7 was evaluated. Table 4 summarizes transcription levels for all four decapeptides with the corresponding genes, at tested concentrations of: 10, 30, 50, 100, and 300 (all in μM).

SIRT6 = SIRT6 transcription, semi-quantitative RT-PCR in human epidermal progenitors; conditions: 72 h
Procedure: as §1, §2, §3, §4, §5, §6

[1] = tested on: human epidermal progenitors; assay: in vitro; conditions: 72 h
Procedure: Proliferation rates were determined using a TACS® MTT Cell Proliferation Kit (R&D systems, Minneapolis, Minn.). Cells were seeded at 2.5×10^4/well in 96-well plates in a humidified atmosphere with 5 percent CO2 at 37 degrees Celsius. Twenty-four hours later, decapeptide-12 or oxyresveratrol were added to the corresponding wells at varying concentrations (0, 3, 10, 30, 100, 300, and 1000 μM), and cultures were then incubated for 72 hours. The remainder of the procedure was performed following the manufacturer's protocol.
Proliferation rates for three human cell lines (epidermal progenitors, melanoblasts, and fibroblasts) were determined using a TACS® MTT Cell Proliferation Kit. Cells were seeded at 2.5×10^4/well in 96-well plates in a humidified atmosphere with 5 percent CO2 at 37 degrees Celsius. Twenty-four hours later, the decapeptides were added to the corresponding wells at varying concentrations and incubated for 72 hours. The remainder of the procedure was performed following the manufacturer's protocol.

SIRT4 = SIRT4 transcription, semi-quantitative RT-PCR in human epidermal progenitors; conditions: 72 h
Procedure: as §1, §2, §3, §4, §5, §6

SIRT2 = SIRT2 transcription, semi-quantitative RT-PCR in human epidermal progenitors; conditions: 72 h
Procedure: as §1, §2, §3, §4, §5, §6

SIRT7 = SIRT7 transcription, semi-quantitative RT-PCR in human epidermal progenitors; conditions: 72 h
Procedure: as §1, §2, §3, §4, §5, §6

SIRT5 = SIRT5 transcription, semi-quantitative RT-PCR in human epidermal progenitors; conditions: 72 h
Procedure: as §1, §2, §3, §4, §5, §6

SIRT1 = SIRT1 transcription, semi-quantitative RT-PCR in human epidermal progenitors; conditions: 72 h
Procedure: as §1, §2, §3, §4, §5, §6

[2] = tested on: human epidermal progenitors; assay: Trypan blue dye exclusion cytotoxicity assay, 72 h, epidermal progenitors; conditions: human, 72 h
Procedure: Cellular toxicity was measured using a trypan blue dye exclusion assay. Cells were cultured in 6-well plates at a density of 4×10^5 cells/well. Each well received a different concentration of decapeptide-12 or oxyresveratrol (0, 3, 10, 30, 100, 300, and 1000 μM). Plates were incubated at 37 degrees Celsius in a humidified 5 percent CO2 chamber. After 72 h, an aliquot was taken and cells counted using a hemacytometer. Cytotoxicity was measured according to the following formula: [1−(# of cells in control−# of live cells in test sample)/# of cells in control]×100 percent.

Oc1cc(O)cc(/C=C/c2ccc(O)cc2O)c1 [oxyresveratrol, Oxyresveratrol, reference compound]
SIRT3 transcription increase relative to control (SIRT3; 3 μM): 10 ± 3%
SIRT3 transcription increase relative to control (SIRT3; 10 μM): 52.7 ± 5.1%
SIRT3 transcription increase relative to control (SIRT3; 30 μM): 133±5%
SIRT3 transcription increase relative to control (SIRT3; 30 μM, listed as Oxy): 133 ± 4.8%
SIRT3 transcription increase relative to control (SIRT3; 50 μM): 156 ± 9.2%
SIRT3 transcription increase relative to control (SIRT3; 100 μM): 148 ± 7.3%
SIRT3 transcription increase relative to control (SIRT3; 300 μM): 152.2 ± 9%
SIRT3 transcription increase relative to control (SIRT3; 500 μM): 151 ± 8.1%
SIRT3 transcription increase relative to control (SIRT3; 1000 μM): 151 ± 7.4%
SIRT6 transcription increase relative to control (SIRT6; 3 μM): 6.1 ± 1%
SIRT6 transcription increase relative to control (SIRT6; 10 μM): 34 ± 5.5%
SIRT6 transcription increase relative to control (SIRT6; 30 μM): 73±8%
SIRT6 transcription increase relative to control (SIRT6; 30 μM, listed as Oxy): 73 ± 8.1%
SIRT6 transcription increase relative to control (SIRT6; 50 μM): 81.3 ± 8.1%
SIRT6 transcription increase relative to control (SIRT6; 100 μM): 82.4 ± 8.4%
SIRT6 transcription increase relative to control (SIRT6; 300 μM): 87.4 ± 9.3%
SIRT6 transcription increase relative to control (SIRT6; 500 μM): 81.2 ± 12.4%
SIRT6 transcription increase relative to control (SIRT6; 1000 μM): 75 ± 15.1%
reduced cell proliferation ([1]; 300 μM): 5±1%
reduced cell proliferation ([1]; 1 mM): 12±2%
SIRT4 transcription increase relative to control (SIRT4; 3 μM): 8.1 ± 1%
SIRT4 transcription increase relative to control (SIRT4; 10 μM): 12.4 ± 2.1%
SIRT4 transcription increase relative to control (SIRT4; 30 μM): 49 ± 6.7%
SIRT4 transcription increase relative to control (SIRT4; 50 μM): 52.1 ± 6.6%
SIRT4 transcription increase relative to control (SIRT4; 100 μM): 64.1 ± 7.4%
SIRT4 transcription increase relative to control (SIRT4; 300 μM): 67 ± 8.7%
SIRT4 transcription increase relative to control (SIRT4; 500 μM): 61.2 ± 8.8%
SIRT4 transcription increase relative to control (SIRT4; 1000 μM): 71.3 ± 9.2%
SIRT2 transcription increase relative to control (SIRT2; 3 μM): 7.9 ± 2%
SIRT2 transcription increase relative to control (SIRT2; 10 μM): 14.9 ± 1.9%
SIRT2 transcription increase relative to control (SIRT2; 30 μM): 43.1 ± 2.4%
SIRT2 transcription increase relative to control (SIRT2; 50 μM): 56.3 ± 7.7%
SIRT2 transcription increase relative to control (SIRT2; 100 μM): 41.2 ± 8.1%
SIRT2 transcription increase relative to control (SIRT2; 300 μM): 39 ± 9.3%
SIRT2 transcription increase relative to control (SIRT2; 500 μM): 33.1 ± 12.4%
SIRT2 transcription increase relative to control (SIRT2; 1000 μM): 31.2 ± 12.3%
SIRT7 transcription increase relative to control (SIRT7; 3 μM): 6.3 ± 1%
SIRT7 transcription increase relative to control (SIRT7; 10 μM): 65 ± 2.9%
SIRT7 transcription increase relative to control (SIRT7; 30 μM): 95±7%
SIRT7 transcription increase relative to control (SIRT7; 30 μM, listed as Oxy): 95 ± 6.7%
SIRT7 transcription increase relative to control (SIRT7; 50 μM): 114 ± 8.1%
SIRT7 transcription increase relative to control (SIRT7; 100 μM): 132 ± 7.6%
SIRT7 transcription increase relative to control (SIRT7; 300 μM): 168 ± 4.8%
SIRT7 transcription increase relative to control (SIRT7; 500 μM): 177 ± 6.6%
SIRT7 transcription increase relative to control (SIRT7; 1000 μM): 165 ± 5.1%
SIRT5 transcription increase relative to control (SIRT5; 3 μM): 7.1 ± 1%
SIRT5 transcription increase relative to control (SIRT5; 10 μM): 12.3 ± 3%^
SIRT5 transcription increase relative to control (SIRT5; 30 μM): 45.1 ± 4.3%
SIRT5 transcription increase relative to control (SIRT5; 50 μM): 46 ± 4%
SIRT5 transcription increase relative to control (SIRT5; 100 μM): 36.1 ± 6.7%
SIRT5 transcription increase relative to control (SIRT5; 300 μM): 33.4 ± 7.1%
SIRT5 transcription increase relative to control (SIRT5; 500 μM): 35.1 ± 8.1%
SIRT5 transcription increase relative to control (SIRT5; 1000 μM): 37 ± 6.8%
SIRT1 transcription increase relative to control (SIRT1; 3 μM): 8.7 ± 1%
SIRT1 transcription increase relative to control (SIRT1; 10 μM): 45 ± 7.7%
SIRT1 transcription increase relative to control (SIRT1; 30 μM): 125±9%
SIRT1 transcription increase relative to control (SIRT1; 30 μM, listed as Oxy): 124.5 ± 8.6%
SIRT1 transcription increase relative to control (SIRT1; 50 μM): 166 ± 14.5%
SIRT1 transcription increase relative to control (SIRT1; 100 μM): 187 ± 16.6%
SIRT1 transcription increase relative to control (SIRT1; 300 μM): 187 ± 15.4%
SIRT1 transcription increase relative to control (SIRT1; 500 μM): 176 ± 10%^
SIRT1 transcription increase relative to control (SIRT1; 1000 μM): 175 ± 9%
cell death ([2]; 100 μM): 6±1%
cell death ([2]; 1 mM): 16±2%

Source: patent US20180296456A1, “Decapeptide-12 Modulation of Sirtuin Gene Expression in Epidermal Keratinocyte Progenitors” (Escape Therapeutics, Inc., priority 2017, published 2018)
